Values of other authors, collected in doi:10.1101/435081v1 (bioRxiv, 2018).

Test system: Lb. sakei NCDO2714
Conditions: single peptide alone

Substance | Growth inhibition when alone
acidocin LF221A [Acd221A] | inhibited the growth
acidocin LF221B [Acd221B] | inhibited the growth
